From patent US8022091B2, “Triazole derivative” (Taisho Pharmaceutical Co., Ltd., priority 2006, dated 2011)

molecular target: T1, human Edg-1 (S1P1) (Homo sapiens, UniProt P21453); assay: S1P1 binding assay: inhibition of [33P]-S1P binding to membrane fraction of HEK-293 cells transferred with the human Edg-1 (S1P1) gene; conditions: [33P]-S1P 0.1 nM, human Edg-1 (S1P1) HEK-293 membrane fraction, 1 h at 30° C.; read-out: IC50 (concentration at which binding in the absence of the test compound was inhibited by 50%)
T1 construct: expressed in transfected cells; host or cells: HEK-293
Experimental: The membrane fraction was obtained by treating the cells with a solubilizing buffer (1 mM Tris/HCl, pH 7.2) for 10 minutes on ice, centrifuging at 1000×g for 5 minutes to remove insoluble fractions, and then centrifuging at 40000×g for 30 minutes at 4° C. The resulting membrane fraction was dissolved in a binding buffer (20 mM Tris-HCl, pH 7.4, 100 mM NaCl, 15 mM NaF, 2 mM deoxypyridoxine, 4 mg/mL fatty acid-free BSA), and then [^33P]-S1P (manufactured by ARC, final concentration 0.1 nM) and a DMSO solution (final concentration of the compound 10^−5M, final concentration of DMSO 0.1%) of the test compound were added. Thereafter, the mixture was stirred and then treated for one hour at 30° C. Using a harvester, the membrane fraction was harvested onto unifilter-96 GF/C filter (manufactured by Perkin Elmer), washing was carried out four times with the binding buffer, and the filter was dried. Twenty five μL Microscint 0 (manufactured by Perkin Elmer) was added, and radioactivity was measured using Top Count NXT (manufactured by Packard) to calculate the amount (A) of [^33P]-S1P bound to the membrane fraction at the time when the compound was added.
The same procedure was carried out in the absence of the test compound, and the amount (B) of [^33P]-S1P bound was calculated. Further, the same procedure was carried out in the absence of the test compound by use of HEK-293 cells to which no Edg-1 (S1P1) gene was introduced, and the background amount (C) of [^33P]-S1P bound was calculated.
Inhibition rate (%)=[1−(A−C)/(B−C)]×100
Further, concentrations (IC50) at the time when binding in the absence of the test compound was inhibited by 50% were calculated. The membrane system binding assay was carried out in the presence of test compounds with various concentrations, and the Edg-1 (S1P1) binding inhibition rates were calculated using the equation above. Then, IC50 values were calculated using Origin (Lightstone Corp.), a software for data analysis.

T1 sequence (P21453 whole entry): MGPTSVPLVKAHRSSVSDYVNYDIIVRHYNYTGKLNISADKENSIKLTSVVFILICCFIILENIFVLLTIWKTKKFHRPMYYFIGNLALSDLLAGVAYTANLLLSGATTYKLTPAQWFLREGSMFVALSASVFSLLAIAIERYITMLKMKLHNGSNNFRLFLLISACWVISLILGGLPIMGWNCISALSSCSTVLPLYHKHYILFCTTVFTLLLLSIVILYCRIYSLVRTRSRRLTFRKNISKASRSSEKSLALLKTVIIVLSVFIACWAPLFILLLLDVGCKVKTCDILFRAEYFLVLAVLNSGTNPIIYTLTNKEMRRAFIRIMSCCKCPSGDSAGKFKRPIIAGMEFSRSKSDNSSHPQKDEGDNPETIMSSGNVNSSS

IC50 [µM]	SMILES
≤ 0.01	CCn1c(Oc2cccc(N3CCC4(CC3)OCCO4)c2)nnc1[C@@H](C)NS(=O)(=O)c1ccc(Cl)c(Cl)c1 [Compound 87, 3,4-Dichloro-N-((R)-1-[5-[3-(1,4-dioxa-8-aza-spiro[4.5]decan-8-yl)-phenoxy]-4-ethyl-4H-[1,2,4]triazol-3-yl]-ethyl)-benzenesulfonamide]

same assay, conditions: test compound 10 μM; inhibition of [33P]-S1P binding, membrane fraction

inhibition at 10 µM [%]	SMILES
79.5	CCn1c(Oc2ccc3cc[nH]c3c2)nnc1[C@@H](C)NS(=O)(=O)c1ccc(OC(F)F)cc1 [Compound 434]
110	CCn1c(Oc2cccc(N3CCN(C)CC3)c2)nnc1[C@@H](C)NS(=O)(=O)c1ccc(Br)c(F)c1 [Compound 615]
79.1	CCn1c(Oc2ccc3cc[nH]c3c2)nnc1[C@@H](C)NS(=O)(=O)c1ccc(C#N)cc1 [Compound 395]
55.7	CCn1c(Oc2ccc3cc[nH]c3c2)nnc1[C@@H](C)NS(=O)(=O)c1cc(C(F)(F)F)ccc1Br [Compound 443]
106	CCn1c(Oc2cccc(N3CCN(C)CC3)c2)nnc1[C@@H](C)NS(=O)(=O)c1ccc(C)cc1 [Compound 528]
107	CCn1c(Oc2cccc(N3CCN(C)CC3)c2)nnc1[C@@H](C)NS(=O)(=O)c1cc(C(F)(F)F)cc(C(F)(F)F)c1 [Compound 553]
65.3	CCn1c(Oc2ccc3cc[nH]c3c2)nnc1[C@@H](C)NS(=O)(=O)c1ccc(Cl)c(S(N)(=O)=O)c1 [Compound 484]
96.6	CCn1c(Oc2cccc(N3CCN(C)CC3)c2)nnc1[C@@H](C)NS(=O)(=O)c1ccc2c(c1)OCO2 [Compound 675]
86.3	CCn1c(Oc2cccc(N3CCN(C)CC3)c2)nnc1[C@@H](C)NS(=O)(=O)c1ccc(C(C)C)cc1 [Compound 573]
62.3	CCn1c(Oc2cccc(N3CCN(C)CC3)c2)nnc1[C@@H](C)NS(=O)(=O)c1c(F)cccc1F [Compound 590]
63	CCn1c(Oc2ccc3cc[nH]c3c2)nnc1[C@@H](C)NS(=O)(=O)c1ccc(F)cc1Br [Compound 441]
71.6	CCn1c(Oc2ccc3cc[nH]c3c2)nnc1[C@@H](C)NS(=O)(=O)c1ccc(Cl)cc1F [Compound 438]
96.5	CCn1c(Oc2cccc(N3CCN(C)CC3)c2)nnc1[C@@H](C)NS(=O)(=O)c1cccc(Cl)c1 [Compound 572]
111	CCn1c(Oc2cccc(N3CCN(C)CC3)c2)nnc1[C@@H](C)NS(=O)(=O)c1ccc(I)cc1 [Compound 525]
85.7	CCn1c(Oc2cccc(N3CCN(C)CC3)c2)nnc1[C@@H](C)NS(=O)(=O)c1ccc(-c2cnco2)s1 [Compound 636]
94.9	CCn1c(Oc2cccc(N3CCN(C)CC3)c2)nnc1[C@@H](C)NS(=O)(=O)c1ccc(Br)c(C(F)(F)F)c1 [Compound 657]

inhibition at 10 µM [%]	SMILES
96.7	CCCc1ccc(S(=O)(=O)N[C@H](C)c2nnc(Oc3cccc(N4CCN(C)CC4)c3)n2CC)cc1 [Compound 548]
80.4	CCn1c(Oc2cccc(N3CCN(C)CC3)c2)nnc1[C@@H](C)NS(=O)(=O)c1cc(Br)cc(C(F)(F)F)c1 [Compound 658]
70.1	CCn1c(Oc2ccc3cc[nH]c3c2)nnc1[C@@H](C)NS(=O)(=O)c1ccc(C(F)(F)F)cc1Br [Compound 442]
61.4	CCn1c(Oc2ccc3cc[nH]c3c2)nnc1[C@@H](C)NS(=O)(=O)c1cc(F)cc(Cl)c1C [Compound 405]
88.4	CCn1c(Oc2cccc(N3CCN(C)CC3)c2)nnc1[C@@H](C)NS(=O)(=O)c1cc(C)ccc1F [Compound 620]
64.4	CCCCCCCCCCS(=O)(=O)N[C@H](C)c1nnc(Oc2cccc(N3CCN(C)CC3)c2)n1CC [Compound 628]
83.2	CCn1c(Oc2ccc3cc[nH]c3c2)nnc1[C@@H](C)NS(=O)(=O)c1cc(Br)c(F)cc1F [Compound 416]
60	CCn1c(Oc2cccc(N3CCN(C)CC3)c2)nnc1[C@@H](C)NS(=O)(=O)CC(c1ccccc1)c1ccccc1 [Compound 587]
103	CCn1c(Oc2cccc(N3CCN(C)CC3)c2)nnc1[C@@H](C)NS(=O)(=O)c1ccc2c(c1)CCO2 [Compound 672]
60.7	CCn1c(Oc2cccc(N3CCN(C)CC3)c2)nnc1[C@@H](C)NS(=O)(=O)c1c(Cl)cccc1Cl [Compound 512]
68.2	CCn1c(Oc2ccc3cc[nH]c3c2)nnc1[C@@H](C)NS(=O)(=O)c1ccc(Br)cc1C [Compound 407]
109	CCn1c(Oc2cccc(N3CCN(C)CC3)c2)nnc1[C@@H](C)NS(=O)(=O)c1cc(C)c(Cl)cc1Cl [Compound 588]
98.6	CCn1c(Oc2cccc(N3CCN(C)CC3)c2)nnc1[C@@H](C)NS(=O)(=O)c1cc(Cl)ccc1Cl [Compound 511]
89.5	CCn1c(Oc2cccc(N3CCN(C)CC3)c2)nnc1[C@@H](C)NS(=O)(=O)c1ccc(-c2ccno2)s1 [Compound 598]
104	CCn1c(Oc2cccc(N3CCN(C)CC3)c2)nnc1[C@@H](C)NS(=O)(=O)c1ccc(C(C)=O)cc1 [Compound 497]

same assay, conditions: test compound at 10 μM; inhibition of [33P]-S1P binding to the membrane fraction of HEK-293 cells expressing human Edg-1 (S1P1)

inhibition at 10 µM [%]	SMILES
72.9	CCn1c(Oc2ccc(F)cc2)nnc1[C@@H](C)NS(=O)(=O)c1cccc(C#N)c1 [Compound 165]
74.1	CCn1c(Oc2ccc(F)cc2)nnc1[C@@H](C)NS(=O)(=O)c1ccc(Br)cc1Br [Compound 260]
94.4	CCn1c(Oc2ccc(F)cc2)nnc1[C@@H](C)NS(=O)(=O)c1ccc(Br)cc1Cl [Compound 276]
60.6	CCn1c(Oc2ccc(F)cc2)nnc1[C@@H](C)NS(=O)(=O)CC1CCCCC1 [Compound 286]
99.9	CCn1c(Oc2cccc(N3CCC4(CC3)OCCO4)c2)nnc1[C@@H](C)NS(=O)(=O)c1ccc(Cl)c(Cl)c1 [Compound 87, 3,4-Dichloro-N-((R)-1-[5-[3-(1,4-dioxa-8-aza-spiro[4.5]decan-8-yl)-phenoxy]-4-ethyl-4H-[1,2,4]triazol-3-yl]-ethyl)-benzenesulfonamide]
88	CCn1c(Oc2ccc3cc[nH]c3c2)nnc1[C@@H](C)NS(=O)(=O)c1cc(Br)ccc1OC [Compound 389]
50.8	CCn1c(Oc2ccc(F)cc2)nnc1[C@@H](C)NS(=O)(=O)c1ccsc1 [Compound 294]
73.6	CCn1c(Oc2ccc3cc[nH]c3c2)nnc1[C@@H](C)NS(=O)(=O)c1ccc(Br)c(Br)c1 [Compound 392]
50.1	CCn1c(Oc2ccc3cc[nH]c3c2)nnc1[C@@H](C)NS(=O)(=O)c1c(C)cc(C)cc1C [Compound 347]
80.4	CCn1c(Oc2ccc(F)cc2)nnc1[C@@H](C)NS(=O)(=O)c1ccc(Cl)cc1Cl [Compound 226]
80.2	CCn1c(Oc2ccc(F)cc2)nnc1C(C)(C)NS(=O)(=O)c1c(C)c(C)cc(C)c1C [Compound 208]
50.4	CCn1c(Oc2ccc(F)cc2)nnc1[C@@H](C)NS(=O)(=O)c1c(F)c(F)c(F)c(F)c1F [Compound 181]
90	CCn1c(Oc2ccc(F)cc2)nnc1[C@@H](C)NS(=O)(=O)c1cc(F)c(Cl)cc1F [Compound 243]
56.8	CCn1c(Oc2ccc3cc[nH]c3c2)nnc1[C@@H](C)NS(=O)(=O)c1ccccc1C#N [Compound 336]
92	CCc1ccc(S(=O)(=O)N[C@H](C)c2nnc(Oc3ccc(F)cc3)n2CC)cc1 [Compound 172]
52.2	CCn1c(Oc2ccc(F)cc2)nnc1[C@@H](C)NS(=O)(=O)c1ccc(Cl)c(S(N)(=O)=O)c1 [Compound 314]
96.9	C=Cc1ccc(S(=O)(=O)N[C@H](C)c2nnc(Oc3ccc(F)cc3)n2CC)cc1 [Compound 191]
86.8	CCn1c(Oc2ccc(F)cc2)nnc1[C@@H](C)NS(=O)(=O)c1ccc(C)cc1 [Compound 186]
69.2	CCn1c(Oc2ccc3cc[nH]c3c2)nnc1[C@@H](C)NS(=O)(=O)c1cccc(C#N)c1 [Compound 338]
53.5	CCn1c(Oc2ccc(F)cc2)nnc1[C@@H](C)NS(=O)(=O)c1cc(Cl)ccc1F [Compound 274]
78.8	CCn1c(Oc2ccc(F)cc2)nnc1[C@@H](C)NS(=O)(=O)c1ccc(OC)cc1OC [Compound 301]
91.4	CCn1c(Oc2ccc(F)cc2)nnc1[C@@H](C)NS(=O)(=O)c1cccc(OC)c1 [Compound 215]
77.9	CCn1c(Oc2ccc(F)cc2)nnc1[C@@H](C)NS(=O)(=O)c1cc2ccccc2s1 [Compound 323]
89.6	CCn1c(Oc2ccc(F)cc2)nnc1[C@@H](C)NS(=O)(=O)c1ccc(Cl)cc1F [Compound 267]
85.4	CCCc1ccc(S(=O)(=O)N[C@H](C)c2nnc(Oc3ccc(F)cc3)n2CC)cc1 [Compound 206]
76	CCn1c(Oc2ccc(F)cc2)nnc1[C@@H](C)NS(=O)(=O)c1ccc(OC)c(OC)c1 [Compound 170]
